Patent US9957264B2 (Merck Sharp & Dohme Corp., priority 2013, dated 2018)

How the values were obtained:
[1] = target: JAK1 (recombinant purified GST-tagged catalytic domain) (Homo sapiens (Human), UniProt P23458); experiment: Jak Biochemical HTRF Assay (JAK1); details: [ATP] 31.8 μM
In short: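 Compounds in DMSO were pre-equilibrated with enzyme and biotinylated peptide, then ATP was added and the reaction proceeded 120 min at room temperature. EDTA-based stop buffer with detection reagents was added, and after 60 min the time-resolved FRET ratio was read. IC50s came from 4-parameter dose–response fits.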

[2] = target: JAK2 (recombinant purified GST-tagged catalytic domain) (Homo sapiens (Human), UniProt O60674); experiment: Jak Biochemical HTRF Assay (JAK2); details: [ATP] 8.5 μM
Chain of JAK2 (recombinant purified GST-tagged catalytic domain) (O60674 849-1124): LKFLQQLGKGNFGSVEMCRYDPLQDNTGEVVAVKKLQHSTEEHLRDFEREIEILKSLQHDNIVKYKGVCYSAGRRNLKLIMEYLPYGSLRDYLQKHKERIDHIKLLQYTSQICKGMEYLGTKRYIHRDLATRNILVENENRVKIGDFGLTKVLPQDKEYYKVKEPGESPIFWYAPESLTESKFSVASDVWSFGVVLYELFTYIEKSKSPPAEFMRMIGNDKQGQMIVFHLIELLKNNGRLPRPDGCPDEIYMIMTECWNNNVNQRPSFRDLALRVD

Chain of JAK1 (recombinant purified GST-tagged catalytic domain) (P23458 875-1153): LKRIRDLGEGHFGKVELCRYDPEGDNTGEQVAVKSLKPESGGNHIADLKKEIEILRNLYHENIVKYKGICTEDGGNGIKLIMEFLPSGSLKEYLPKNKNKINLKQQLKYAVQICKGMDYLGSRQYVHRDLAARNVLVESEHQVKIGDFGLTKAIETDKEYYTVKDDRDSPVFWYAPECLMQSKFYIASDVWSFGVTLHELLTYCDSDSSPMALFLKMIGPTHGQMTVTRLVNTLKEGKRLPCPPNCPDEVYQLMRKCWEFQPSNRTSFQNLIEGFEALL

Compound	IC50 [1] [nM]	IC50 [2] [nM]
N#CC[C@@]1(n2nc(Nc3ccc(C4(C(F)(F)F)CC4)cc3)c3c(=O)[nH]ccc32)CCCOC1 [Example 5-224, (S)-2-(3-(4-oxo-3-((4-(1-(trifluoromethyl)cyclopropyl)phenyl)amino)-4,5-dihydro-1H-pyrazolo[4,3-c]pyridin-1-yl)tetrahydro-2H-pyran-3-yl)acetonitrile]	0.36	3
CN(C)c1ccc2cc(Nc3nn([C@]4(CC#N)CCCOC4)c4cc[nH]c(=O)c34)ccc2n1 [Example 5-225, (S)-2-(3-(3-((2-(dimethylamino)quinolin-6-yl)amino)-4-oxo-4,5-dihydro-1H-pyrazolo[4,3-c]pyridin-1-yl)tetrahydro-2H-pyran-3-yl)acetonitrile]	0.15	2.3
Cc1ccc2cc(Nc3nn([C@]4(CC#N)CCCOC4)c4cc[nH]c(=O)c34)ccc2n1 [Example 5-226, (S)-2-(3-(3-((2-methylquinolin-6-yl)amino)-4-oxo-4,5-dihydro-1H-pyrazolo [4,3-c]pyridin-1-yl)tetrahydro-2H-pyran-3-yl)acetonitrile]	0.11	2.94
C[C@H]1CN(c2ccc3cc(Nc4nn([C@]5(CC#N)CC[C@@H](C(=O)OC(C)(C)C)OC5)c5cc[nH]c(=O)c45)ccc3n2)CCO1 [Example 5-228, (2S,5S)-tert-butyl 5-(cyanomethyl)-5-(3-((2-((S)-2-methylmorpholino)quinolin-6-yl)amino)-4-oxo-4,5-dihydro-1H-pyrazolo[4,3-c]pyridin-1-yl)tetrahydro-2H-pyran-2-carboxylate]	0.25	1.06
CC(C)(C)OC(=O)[C@@H]1CC[C@@](CC#N)(n2nc(Nc3ccc4nc(N5CC6CCC(C5)O6)ccc4c3)c3c(=O)[nH]ccc32)CO1 [Example 5-229, (2S,5S)-tert-butyl 5-(3-((2-(8-oxa-3-azabicyclo[3.2.1]octan-3-yl)quinolin-6-yl)amino)-4-oxo-4,5-dihydro-1H-pyrazolo[4,3-c]pyridin-1-yl)-5-(cyanomethyl) tetrahydro-2H-pyran-2-carboxylate]	0.34	1.39
CC(C)(C)OC(=O)[C@@H]1CC[C@@](CC#N)(n2nc(Nc3ccc(S(=O)(=O)C(C)(C)C)cc3)c3c(=O)[nH]ccc32)CO1 [Example 5-235, (2S,5S)-tert-butyl 5-(3-((4-(tert-butylsulfonyl)phenyl)amino)-4-oxo-4,5-dihydro-1H-pyrazolo[4,3-c]pyridin-1-yl)-5-(cyanomethyl) tetrahydro-2H-pyran-2-carboxylate]	0.14	0.21
CC(C)(C)OC(=O)[C@@H]1CC[C@@](CC#N)(n2nc(Nc3ccc(S(=O)(=O)C4CC4)cc3)c3c(=O)[nH]ccc32)CO1 [Example 5-236, (2S,5S)-tert-butyl 5-(cyanomethyl)-5-(3-((4-(cyclopropylsulfonyl)phenyl)amino)-4-oxo-4,5-dihydro-1H-pyrazolo[4,3-c]pyridin-1-yl)tetrahydro-2H-pyran-2-carboxylate]	0.12	0.25
CC(C)S(=O)(=O)c1ccc(Nc2nn([C@]3(CC#N)CC[C@@H](C(=O)OC(C)(C)C)OC3)c3cc[nH]c(=O)c23)cc1 [Example 5-237, (2S,5S)-tert-butyl 5-(cyanomethyl)-5-(3-((4-(isopropylsulfonyl)phenyl)amino)-4-oxo-4,5-dihydro-1H-pyrazolo[4,3-c]pyridin-1-yl)tetrahydro-2H-pyran-2-carboxylate]	0.15	0.28
CN(C)C(=O)c1ccc2cc(Nc3nn([C@]4(CC#N)CC[C@@H](C(=O)OC(C)(C)C)OC4)c4cc[nH]c(=O)c34)ccc2n1 [Example 5-238, (2S,5S)-tert-butyl 5-(cyanomethyl)-5-(3-((2-(dimethylcarbamoyl)quinolin-6-yl)amino)-4-oxo-4,5-dihydro-1H-pyrazolo[4,3-c]pyridin-1-yl)tetrahydro-2H-pyran-2-carboxylate]	0.11	0.48
CC(C)(C)N1Cc2cc(Nc3nn(C4(CC#N)CCOCC4)c4cc[nH]c(=O)c34)ccc2S1(=O)=O [Example 5-251, 2-(4-(3-((2-(tert-butyl)-1,1-dioxido-2,3-dihydrobenzo[d]isothiazol-5-yl)amino)-4-oxo-4,5-dihydro-1H-pyrazolo[4,3-c]pyridin-1-yl)tetrahydro-2H-pyran-4-yl)acetonitrile]	0.06	0.78
CC(C)(C)S(=O)(=O)c1ccc(Nc2nn(C3(CC#N)CCOCC3)c3cc[nH]c(=O)c23)cc1 [Example 5-252, 2-(4-(3-((4-(tert-butylsulfonyl)phenyl)amino)-4-oxo-4,5-dihydro-1H-pyrazolo[4,3-c]pyridin-1-yl)tetrahydro-2H-pyran-4-yl)acetonitrile]	0.34	0.84
CN(C(C)(C)C)S(=O)(=O)c1ccc(Nc2nn(C3(CC#N)CCOCC3)c3cc[nH]c(=O)c23)cc1 [Example 5-253, N-(tert-butyl)-4-((1-(4-(cyanomethyl)tetrahydro-2H-pyran-4-yl)-4-oxo-4,5-dihydro-1H-pyrazolo[4,3-c]pyridin-3-yl)amino)-N-methylbenzenesulfonamide]	0.72	1.4
CN(C)S(=O)(=O)c1ccc(Nc2nn(C3(CC#N)CCOCC3)c3cc[nH]c(=O)c23)cc1 [Example 5-254, 4-((1-(4-(cyanomethyl)tetrahydro-2H-pyran-4-yl)-4-oxo-4,5-dihydro-1H-pyrazolo[4,3-c]pyridin-3-yl)amino)-N,N-dimethylbenzenesulfonamide]	0.66	1.4
CC(C)NC(C)(C)c1ccc(Nc2nn([C@@]3(CC#N)CCN(C(=O)OC(C)(C)C)C[C@H]3F)c3cc[nH]c(=O)c23)cc1 [Example 5-273, tert-butyl (3R,4R)-4-(cyanomethyl)-3-fluoro-4-{3-[(4-{1-methyl-1-[(1-methylethyl)amino]ethyl}phenyl)amino]-4-oxo-4,5-dihydro-1H-pyrazolo[4,3-c]pyridin-1-yl}piperidine-1-carboxylate]	0.17	0.14
CC(C)NC(C)(C)c1ccc(Nc2nn([C@]3(CC#N)CC[C@@H](C(=O)OC(C)(C)C)OC3)c3cc[nH]c(=O)c23)cc1 [Example 5-274, (2S,5S)-tert-butyl 5-(cyanomethyl)-5-(3-((4-(2-(isopropylamino)propan-2-yl)phenyl)amino)-4-oxo-4,5-dihydro-1H-pyrazolo[4,3-c]pyridin-1-yl)tetrahydro-2H-pyran-2-carboxylate]	0.36	0.26
COC(c1ccc(Nc2nn([C@@]3(CC#N)CCN(C(=O)OC(C)(C)C)C[C@H]3F)c3cc[nH]c(=O)c23)cc1)C(F)(F)F (stereo partly drawn) [Example 5-275]	0.17	0.09
CC(C)NC(C)(C)c1ccc(Nc2nn(C3(CC#N)CCN(C(=O)OC(C)(C)C)CC3)c3cc[nH]c(=O)c23)cc1 [Example 5-276, tert-butyl 4-(cyanomethyl)-4-{3-[(4-{1-methyl-1-[(1-methylethyl)amino]ethyl}phenyl)amino]-4-oxo-4,5-dihydro-1H-pyrazolo[4,3-c]pyridin-1-yl}piperidine-1-carboxylate]	0.57	0.4
Cc1cc(Nc2nn([C@@]3(CC#N)CCN(C(=O)OC(C)(C)C)C[C@H]3F)c3cc[nH]c(=O)c23)ccc1C(=O)N1CCSCC1 [Example 5-279, (3R,4R)-tert-butyl 4-(cyanomethyl)-3-fluoro-4-(3-((3-methyl-4-(thiomorpholine-4-carbonyl)phenyl)amino)-4-oxo-4,5-dihydro-1H-pyrazolo[4,3-c]pyridin-1-yl)piperidine-1-carboxylate]	0.18	0.12
CC(C)(C)OC(=O)N1CCC(CC#N)(n2nc(Nc3ccc(S(=O)(=O)NC4CCCCC4)cc3)c3c(=O)[nH]ccc32)CC1 [Example 5-292, tert-butyl 4-(cyanomethyl)-4-(3-((4-(N-cyclohexylsulfamoyl)phenyl)amino)-4-oxo-4,5-dihydro-1H-pyrazolo[4,3-c]pyridin-1-yl)piperidine-1-carboxylate]	1.2	1.92
CC(C)(C)OC(=O)N1CCC(CC#N)(n2nc(Nc3ccc(S(=O)(=O)N4CCCCC4)cc3)c3c(=O)[nH]ccc32)CC1 [Example 5-293, tert-butyl 4-(cyanomethyl)-4-(4-oxo-3-((4-(piperidin-1-ylsulfonyl)phenyl)amino)-4,5-dihydro-1H-pyrazolo[4,3-c]pyridin-1-yl)piperidine-1-carboxylate]	0.43	0.68
CC(C)(C)OC(=O)N1CCC(CC#N)(n2nc(Nc3ccc(S(=O)(=O)N4CCOCC4)cc3)c3c(=O)[nH]ccc32)CC1 [Example 5-294, tert-butyl 4-(cyanomethyl)-4-(3-((4-(morpholinosulfonyl)phenyl)amino)-4-oxo-4,5-dihydro-1H-pyrazolo[4,3-c]pyridin-1-yl)piperidine-1-carboxylate]	0.22	0.37
CC(C)NS(=O)(=O)c1ccc(Nc2nn(C3(CC#N)CCN(C(=O)OC(C)(C)C)CC3)c3cc[nH]c(=O)c23)cc1F [Example 5-295, tert-butyl 4-(cyanomethyl)-4-(3-((3-fluoro-4-(N-isopropylsulfamoyl)phenyl)amino)-4-oxo-4,5-dihydro-1H-pyrazolo[4,3-c]pyridin-1-yl)piperidine-1-carboxylate]	0.42	0.6
CC(C)(C)OC(=O)N1CCC(CC#N)(n2nc(Nc3ccc(S(=O)(=O)NCC4CC4)c(F)c3)c3c(=O)[nH]ccc32)CC1 [Example 5-296, tert-butyl 4-(cyanomethyl)-4-(3-((4-(N-(cyclopropylmethyl)sulfamoyl)-3-fluorophenyl)amino)-4-oxo-4,5-dihydro-1H-pyrazolo[4,3-c]pyridin-1-yl)piperidine-1-carboxylate]	0.65	0.91
N#CCC1(n2nc(Nc3ccc(F)cc3)c3c(=O)[nH]ccc32)CCNCC1 [Example 6, (4-{3-[(4-fluorophenyl)amino]-4-oxo-4,5-dihydro-1H-pyrazolo[4,3-c]pyridin-1-yl}piperidin-4-yl)acetonitrile]	421	> 1500
